In patent publication US7351744B2, “Naphthalene derivatives as termite repellents and toxicants” (Board of Supervisors of Louisiana State University and …, priority 2003, dated 2008):

Tested on: C. formosanus workers and soldiers
Assay: Treated filter paper as the sole food source
Type: in vivo, Coptotermes formosanus
Conditions: for Percent survival: colonies C and WB combined
Protocol: To assay the effect of 2′-acetonaphthone on termites when added to a sole food source, acute and cumulative toxicities of 2′-acetonaphthone-treated filter paper (Whatman #2) and balsa wood (Ochroma lagopus Swartz) slices (2.3 cm×4.0 cm) were evaluated. Seven concentrations (0, 1, 10, 50, 100, 500, and 1000 mg/l) were prepared in 100 ml ethanol. Six filter papers and six wood slices were soaked in each concentration for 4 h; control filter papers and wood slices were soaked only in ethanol. After treatment, the food sources were kept overnight at ambient conditions for solvent evaporation. Eighty-four plastic containers (5.5 cm diameter×3.7 cm height) were provided with 22 g of wetted sand (20 g sand (fine blasting sand #4, Cement Products Inc., Baton Rouge, La.) mixed with 2 ml DDH2O). Then either a filter paper or a wood slice was separately placed to fit on the surface of the wetted sand and wetted with DDH2O (250 μl). Into each container, fifty workers and 20 soldiers were placed on the surface of the filter paper or wood slice. For each concentration and food sourse, three replicates received termites from colony C, and three replicates received termites from colony WB. The containers were covered and incubated for 10 days at 27.4° C. and 70% RH. Containers were monitored everytwo days to ensure suitable moisture. On days 1, 5 and 10, the number of living workers and soldiers were counted. An average percent survival was calculated for each treatment. (See Tables 2 and 3).

Q: Which results are given for `CC(=O)c1ccc2ccccc2c1` [2′-acetonaphthone]?
A: Percent survival (filter paper 1 mg/l, Day 1, Soldier): 84.17 ± 9.26 a %; Percent survival (filter paper 1 mg/l, Day 1, Worker): 87.67 ± 5.83 a %; Percent survival (filter paper 1 mg/l, Day 5, Soldier): 58.33 ± 10.14 a %; Percent survival (filter paper 1 mg/l, Day 5, Worker): 73.0 ± 8.24 a %; Percent survival (filter paper 1 mg/l, Day 10, Soldier): 60.83 ± 13.07 a %; Percent survival (filter paper 1 mg/l, Day 10, Worker): 55.67 ± 8.98 a %; Percent survival (filter paper 10 mg/l, Day 1, Soldier): 80.0 ± 9.49 a %; Percent survival (filter paper 10 mg/l, Day 1, Worker): 84.0 ± 4.95 a %; Percent survival (filter paper 10 mg/l, Day 5, Soldier): 56.67 ± 12.49 a %; Percent survival (filter paper 10 mg/l, Day 5, Worker): 66.67 ± 9.71 ab %; Percent survival (filter paper 10 mg/l, Day 10, Soldier): 50.0 ± 12.91 a %; Percent survival (filter paper 10 mg/l, Day 10, Worker): 53.67 ± 12.92 a %; Percent survival (filter paper 50 mg/l, Day 1, Soldier): 72.50 ± 11.46 a %; Percent survival (filter paper 50 mg/l, Day 1, Worker): 80.33 ± 9.76 a %; Percent survival (filter paper 50 mg/l, Day 5, Soldier): 42.50 ± 9.56 a %; Percent survival (filter paper 50 mg/l, Day 5, Worker): 68.33 ± 11.56 ab %; Percent survival (filter paper 50 mg/l, Day 10, Soldier): 35.83 ± 8.41 a %; Percent survival (filter paper 50 mg/l, Day 10, Worker): 55.0 ± 12.07 a %; Percent survival (filter paper 100 mg/l, Day 1, Soldier): 73.33 ± 5.87 a %; Percent survival (filter paper 100 mg/l, Day 1, Worker): 80.0 ± 6.68 a %; Percent survival (filter paper 100 mg/l, Day 5, Soldier): 33.33 ± 11.53 a %; Percent survival (filter paper 100 mg/l, Day 5, Worker): 48.33 ± 10.33 b %; Percent survival (filter paper 100 mg/l, Day 10, Soldier): 17.50 ± 5.74 b %; Percent survival (filter paper 100 mg/l, Day 10, Worker): 40.67 ± 9.98 a %; Percent survival (filter paper 500 mg/l, Day 1, Soldier): 14.17 ± 5.23 b %; Percent survival (filter paper 500 mg/l, Day 1, Worker): 18.33 ± 6.60 b %; Percent survival (filter paper 500 mg/l, Day 5, Soldier): 0.0 ± 0.0 b %; Percent survival (filter paper 500 mg/l, Day 5, Worker): 0.0 ± 0.0 c %; Percent survival (filter paper 500 mg/l, Day 10, Soldier): 0.0 ± 0.0 c %; Percent survival (filter paper 500 mg/l, Day 10, Worker): 0.0 ± 0.0 b %; Percent survival (filter paper 1000 mg/l, Day 1, Soldier): 1.67 ± 1.67 b %; Percent survival (filter paper 1000 mg/l, Day 1, Worker): 6.67 ± 6.67 b %; Percent survival (filter paper 1000 mg/l, Day 5, Soldier): 0.0 ± 0.0 b %; Percent survival (filter paper 1000 mg/l, Day 5, Worker): 0.0 ± 0.0 c %; Percent survival (filter paper 1000 mg/l, Day 10, Soldier): 0.0 ± 0.0 c %; Percent survival (filter paper 1000 mg/l, Day 10, Worker): 0.0 ± 0.0 b %; concentration acutely toxic when applied to a sole food source (sole food source): 0.1 % (wt/v); concentration at which termites showed decreased survival (sole food source impregnated (filter paper or wood slice)): 1000 mg/L
